The text below walks through data of patent US20160264570A1, “METHOD OF BLOCKING TRANSMISSION OF MALARIAL PARASITE” (THE UNITED STATES OF AMERICA, AS REPRESENTED BY THE …, priority 2013, published 2016).

Molecules are shown by their SMILES. Where two headings read alike, the source gives them in different places.

The subject of assay [1] is P. falciparum strain 3D7 gametocytes. Briefly: alamarBlue gametocyte viability assay, strain 3D7. Particulars: for EC50: read-out: Gametocytocidal activity EC50.
Assay [2] relates to Asexual parasites of P. falciparum strain 3D7. Briefly: SYBR Green viability assay on asexual parasites. The class given is cell-based, Plasmodium falciparum. Particulars: for EC50: read-out: Activity against asexual parasites EC50.
Assay [3] relates to HepG2 cells. Nature of the assay: Cytotoxicity in mammalian HepG2 cell line. To be noted: for IC50 / Emax: Homo sapiens; for Emax: HepG2, read-out: % Max response.
Assay [4] concerns P. falciparum strain HB3 gametocytes. Nature of the assay: alamarBlue gametocyte viability assay, strain HB3. Particulars: for IC50: Plasmodium falciparum.
The test system of assay [5] is P. falciparum strain Dd2 gametocytes. Briefly: alamarBlue gametocyte viability assay, strain Dd2. To be noted: Plasmodium falciparum, DD2, read-out: Dd2-IC50.
Setting [6] is: Plasmodium falciparum, 3D7, read-out: 3D7-IC50.
[7] abbreviates: HepG2, read-out: IC50 (μM) in HepG2 cells.
Where [8] appears, read: HB3, read-out: HB3-IC50, Table 3, 11 concentrations, 1:3 dilution, three times.
The mark [9] stands for this setting: Plasmodium falciparum, 3D7, read-out: Gametocyte IC50.
The mark [10] stands for this setting: HepG2, read-out: IC50 (μM) in HepG2.

In the case of `O=c1ccc2cnc3ccc(-c4ccccc4)cc3c2n1-c1cccc(C(F)(F)F)c1`, the EC50 in assay [1] (Table 6) was 0.627 µM; in assay [2] (Table 6) it was 0.113 µM.
On the same counts, the results for `O=c1ccc2cnc3ccc(-c4ccncc4)cc3c2n1-c1cccc(C(F)(F)F)c1` are 0.246 µM and 0.092 µM.
On the same counts, the results for `Nc1ncc(-c2ccc3ncc4ccc(=O)n(-c5cccc(C(F)(F)F)c5)c4c3c2)cn1` are 0.04 µM and 0.022 µM.
The matching figures for `N#Cc1cccc(-n2c(=O)ccc3cnc4ccc(-c5ccc(N)nc5)cc4c32)c1`: 0.023 µM and 0.012 µM.
As for `COc1cccc(-n2c(=O)ccc3cnc4ccc(-c5ccc(N)nc5)cc4c32)c1`, the half-maximal effective concentration (EC50) came out at 0.137 µM in assay [1] (Table 6) and 0.095 µM in assay [2] (Table 6).
On the same counts, the results for `Nc1ccc(-c2ccc3ncc4ccc(=O)n(-c5cccc(S(N)(=O)=O)c5)c4c3c2)cn1` are 0.295 µM and 0.082 µM.
The matching figures for `Nc1ccc(-c2ccc3ncc4ccc(=O)n(-c5ccc(N6CCNCC6)c(C(F)(F)F)c5)c4c3c2)cn1`: 0.01 µM and 0.009 µM.
The matching figures for `O=c1ccc2cnc3ccc(-c4cnc5ccccc5c4)cc3c2n1-c1cccc(C(F)(F)F)c1`: 2.27 µM and 1.18 µM.
For `Nc1ccc(-c2ccc3ncc4ccc(=O)n(CC5CCNCC5)c4c3c2)cn1`, the results for the EC50 in assay [1] (Table 6) and in assay [2] (Table 6) were 11.5 µM and 6.44 µM, respectively.
On the same counts, the results for `Nc1ccc(-c2ccc3ncc4ccc(=O)n(-c5ccccc5)c4c3c2)cn1` are 0.047 µM and 0.033 µM.
The matching figures for `O=c1ccc2cnc3ccc(N4CCNCC4)cc3c2n1-c1cccc(C(F)(F)F)c1`: 22 µM and over 20 µM.
On the same counts, the results for `O=c1ccc2cnc3ccc(C4=CCNCC4)cc3c2n1-c1cccc(C(F)(F)F)c1` are 18.4 µM and 15.7 µM.
Take `CN(C)C(=O)c1cccc(-n2c(=O)ccc3cnc4ccc(-c5ccc(N)nc5)cc4c32)c1`: the values for the EC50 in assay [1] (Table 6) and in assay [2] (Table 6) were 1.52 µM and 0.859 µM, respectively.
The matching figures for `Nc1ccc(-c2ccc3ncc4ccc(=O)n(-c5cccc(Oc6ccccc6)c5)c4c3c2)cn1`: 2.43 µM and 1.67 µM.
On the same counts, the results for `CCOc1cccc(-n2c(=O)ccc3cnc4ccc(-c5ccc(N)nc5)cc4c32)c1` are 0.912 µM and 0.683 µM.
The matching figures for `CN(C)c1ncc(-c2ccc3ncc4ccc(=O)n(-c5cccc(C(F)(F)F)c5)c4c3c2)cn1`: 3.13 µM and 1.95 µM.
As for `Nc1ccc(-c2ccc3ncc4ccc(=O)n(C5CCNCC5)c4c3c2)cn1`, the figures for the concentration for a half-maximal effect (EC50) in assay [1] (Table 6) and in assay [2] (Table 6) were 2.8 µM and 2.37 µM, respectively.
Regarding `Nc1ccc(-c2ccc3ncc4ccc(=O)n(C5CC5)c4c3c2)cn1`, the EC50 in assay [1] (Table 6) worked out at 0.215 µM; in assay [2] (Table 6), 0.56 µM.
Consider `Nc1ccc(-c2ccc3ncc4ccc(=O)n(C5CCOCC5)c4c3c2)cn1`, for which the half-maximal effective concentration (EC50) turned out to be 0.041 µM in assay [1] (Table 6) and 1.34 µM in assay [2] (Table 6).
The matching figures for `Nc1ccc(-c2ccc3ncc4ccc(=O)n(C5CCCCC5)c4c3c2)cn1`: 0.676 µM and 0.707 µM.
On the same counts, the results for `Nc1ccc(-c2ccc3ncc4ccc(=O)n(C5CCCC5)c4c3c2)cn1` are 1.26 µM and 0.882 µM.
The matching figures for `O=c1ccc2cnc3ccc(-c4cccc(C(F)(F)F)c4)cc3c2n1-c1cccc(C(F)(F)F)c1`: 3.38 µM and 4.2 µM.
As for `O=c1ccc2cnc3ccc(Br)cc3c2n1-c1cccc(C(F)(F)F)c1`, the results for the half-maximal effective concentration (EC50) in assay [1] (Table 6) and in assay [2] (Table 6) were 4.95 µM and 5.58 µM, respectively.
On to `Nc1cccc(-c2ccc3ncc4ccc(=O)n(-c5cccc(C(F)(F)F)c5)c4c3c2)c1`, for which the EC50 stood at 0.103 µM in assay [1] (Table 6) and 0.12 µM in assay [2] (Table 6).
On the same counts, the results for `CN(C)c1cccc(-c2ccc3ncc4ccc(=O)n(-c5cccc(C(F)(F)F)c5)c4c3c2)c1` are 3.29 µM and 3.25 µM.
In the case of `C=Cc1ccc2ncc3ccc(=O)n(-c4cccc(C(F)(F)F)c4)c3c2c1`, the concentration giving a half-maximal response (EC50) amounted to 4.9 µM in assay [1] (Table 6) and 3.24 µM in assay [2] (Table 6).
The matching figures for `NC(=O)c1ccc(-c2ccc3ncc4ccc(=O)n(-c5cccc(C(F)(F)F)c5)c4c3c2)cc1`: 1.27 µM and 1.06 µM.
On the same counts, the results for `N#Cc1cccc(-c2ccc3ncc4ccc(=O)n(-c5cccc(C(F)(F)F)c5)c4c3c2)c1` are 0.526 µM and 0.283 µM.
Turning to `C#Cc1cccc(Nc2ncnc3cc(OC)c(OCCCCCCC(=O)NO)cc23)c1` [CUDC-101], the half-inhibitory concentration (IC50) worked out at 0.8 µM in assay [1] (setting [6]); 6.79 µM in assay [3] (setting [7]); 0.152 µM in assay [4] (HB3, read-out: HB3-IC50). Also, in assay [3] (Table 4, HepG2), the “% Max response” value is listed as −76%. The “fold more potent against HB3 compared to 3D7” value in assay [4] (gametocytes) was determined as 5.5 fold.
For the compound `CNc1ccc2oc(C[C@H]3O[C@@]4(CC[C@H]3C)O[C@H]([C@H](C)C(=O)c3ccc[nH]3)[C@H](C)C[C@H]4C)nc2c1C(=O)O` [Calcimycin], the values for the half-inhibitory concentration (IC50) in assay [1] (setting [6]) and in assay [4] (setting [8]) were 2.64 µM and 5.9 µM, respectively.
As to `CCN(CC)CCCC(C)Nc1ccnc2cc(Cl)ccc12` (stereo not drawn) [Chloroquine diphosphate], the IC50 turned out to be 0.2 µM in assay [1] (setting [6]); 0.935 µM in assay [5]; 0.935 µM in assay [4] (HB3, read-out: HB3-IC50).
For the compound `CCN(CC)Cc1nccn1-c1ccc([N+](=O)[O-])cc1C(=O)c1ccccc1Cl` [Nizofenone], the IC50 in assay [1] (setting [6]) stood at 23.5 µM; in assay [4] (setting [8]) it was 14.8 µM.
Turning to `COc1cc(NC(C)CCCN)c2ncccc2c1` (stereo not drawn) [Primaquine diphosphate], the IC50 in assay [5] amounted to 1.08 µM; in assay [4] (HB3, read-out: HB3-IC50) it was 0.679 µM.
Turning to `C/C=C1\NC(=O)[C@H]2CSSCC/C=C/[C@H](CC(=O)N[C@H](C(C)C)C(=O)N2)OC(=O)[C@H](C(C)C)NC1=O` [Romidepsin], the IC50 in assay [1] (setting [6]) was found to be 0.2 µM; in assay [1] (setting [9]), 0.637 µM; in assay [3] (setting [10]), 0.074 µM; in assay [3] (setting [7]), 0.074 µM; in assay [4] (setting [8]) it was 0.148 µM. Besides, the Emax in assay [3] is -98%.
Consider `CC[C@@H](C(=O)[C@@H](C)[C@@H](O)[C@H](C)[C@@H]1O[C@@H]([C@@H](CC)C(=O)O)CC[C@@H]1C)[C@H]1O[C@]2(C=C[C@@H](O)[C@]3(CC[C@@](C)([C@H]4CC[C@](O)(CC)[C@H](C)O4)O3)O2)[C@H](C)C[C@@H]1C` [Salinomycin sodium], for which the half-inhibitory concentration (IC50) in assay [1] (setting [6]) is 0.1 µM; in assay [1] (setting [9]), 0.194 µM; in assay [3] (setting [10]) it was 29.6 µM; in assay [3] (setting [7]), 29.6 µM; in assay [4] (setting [8]), 0.372 µM. For the same compound, in assay [3], the Emax was -69%.
Turning to `CCN(CC)C(=S)SSC(=S)N(CC)CC` [Tetraethylthiuram disulfide], the concentration for half-maximal inhibition (IC50) in assay [5] came out at 0.296 µM; in assay [4] (HB3, read-out: HB3-IC50), 0.148 µM.
Take `CCC(=O)N1CCN(c2ccc(-n3c(=O)ccc4cnc5ccc(-c6cnc7ccccc7c6)cc5c43)cc2C(F)(F)F)CC1` [Torin 1, reference compound]: the half-inhibitory concentration (IC50) worked out at 1.6 µM in assay [1] (read-out: IC50 against 3D7 gametocytes) and 0.215 µM in assay [2] (read-out: IC50 in viability assay using asexual parasites). In addition, the “times less potent than Torin 2 against asexual parasites” value in assay [2] was 78 times.
For `Nc1ccc(-c2ccc3ncc4ccc(=O)n(-c5cccc(C(F)(F)F)c5)c4c3c2)cn1` [drawing 333], the half-maximal effective concentration (EC50) in assay [1] (Table 6) amounted to 0.018 µM; in assay [2] (Table 6), 0.006 µM.
As to `Cn1c(=O)n(-c2cccc(C(F)(F)F)c2)c2c3cc(-c4cccc(C#N)c4)ccc3ncc21` [drawing 455], the EC50 turned out to be 2.82 µM in assay [1] (Table 7) and 0.546 µM in assay [2] (Table 7).
Turning to `Cn1c(=O)n(-c2cccc(C(F)(F)F)c2)c2c3cc(-c4cccc(C#N)c4)ccc3ncc21` [drawing 462], the 50% effective concentration (EC50) in assay [1] (Table 7) was found to be 0.314 µM; in assay [2] (Table 7), 0.059 µM.
